Calls of active or inactive are those of the source. No cut-off for these calls is given here.
How the values were obtained:
Pseudomonas aeruginosa [1] = assay: Antibacterial activity against Pseudomonas aeruginosa LESB58 clinical isolate after 16 to 20 hrs by microdilution assay; format: functional
Pseudomonas aeruginosa [2] = assay: Antibacterial activity against Pseudomonas aeruginosa LESB58 clinical isolate assessed as growth rate in exponential phase at 2 ug/ml measured every 15 mins by microtiter plate reader method; format: functional, organism-based
Pseudomonas aeruginosa [3] = assay: Antibacterial activity against Pseudomonas aeruginosa kl 1.1 clinical isolate after 16 to 20 hrs by microdilution assay; format: functional
Pseudomonas aeruginosa [4] = assay: Antibacterial activity against Pseudomonas aeruginosa KD491 clinical isolate assessed as growth rate in exponential phase at 0.25 ug/ml measured every 15 mins by microtiter plate reader method; format: functional, organism-based
Pseudomonas aeruginosa [5] = assay: Antibacterial activity against Pseudomonas aeruginosa KD491 clinical isolate after 16 to 20 hrs by microdilution assay; format: functional
Pseudomonas aeruginosa [6] = assay: Antibacterial activity against Pseudomonas aeruginosa Clone C clinical isolate assessed as inhibition of biofilm formation at 2 ug/ml after 18 to 22 hrs by crystal violet staining-based polystyrene microtiter plate reader method; format: functional, organism-based
Pseudomonas aeruginosa [7] = assay: Antibacterial activity against Pseudomonas aeruginosa VW1540 clinical isolate after 16 to 20 hrs by microdilution assay; format: functional
Pseudomonas aeruginosa [8] = assay: Antibacterial activity against Pseudomonas aeruginosa kl 3.2 clinical isolate after 16 to 20 hrs by microdilution assay; format: functional
Pseudomonas aeruginosa [9] = assay: Antibacterial activity against Pseudomonas aeruginosa VW1501 clinical isolate after 16 to 20 hrs by microdilution assay; format: functional
Pseudomonas aeruginosa [10] = assay: Antibacterial activity against Pseudomonas aeruginosa VW1485 clinical isolate after 16 to 20 hrs by microdilution assay; format: functional
Pseudomonas aeruginosa [11] = assay: Antibacterial activity against Pseudomonas aeruginosa PAO1 clinical isolate assessed as inhibition of biofilm formation at 2 ug/ml after 18 to 22 hrs by crystal violet staining-based polystyrene microtiter plate reader method; format: functional, organism-based
Pseudomonas aeruginosa [12] = assay: Antibacterial activity against Pseudomonas aeruginosa VW0247 clinical isolate after 16 to 20 hrs by microdilution assay; format: functional
Pseudomonas aeruginosa [13] = assay: Antibacterial activity against Pseudomonas aeruginosa D599 clinical isolate after 16 to 20 hrs by microdilution assay; format: functional
Pseudomonas aeruginosa [14] = assay: Antibacterial activity against Pseudomonas aeruginosa VW178 clinical isolate after 16 to 20 hrs by microdilution assay; format: functional
Pseudomonas aeruginosa [15] = assay: Antibacterial activity against Pseudomonas aeruginosa VW1633 clinical isolate after 16 to 20 hrs by microdilution assay; format: functional
Pseudomonas aeruginosa [16] = assay: Antibacterial activity against Pseudomonas aeruginosa MIDLANDS clinical isolate after 16 to 20 hrs by microdilution assay; format: functional
Pseudomonas aeruginosa [17] = assay: Antibacterial activity against Pseudomonas aeruginosa VW313 clinical isolate after 16 to 20 hrs by microdilution assay; format: functional
Pseudomonas aeruginosa [18] = assay: Antibacterial activity against Pseudomonas aeruginosa LES400 clinical isolate after 16 to 20 hrs by microdilution assay; format: functional
Pseudomonas aeruginosa [19] = assay: Antibacterial activity against Pseudomonas aeruginosa KD557 clinical isolate after 16 to 20 hrs by microdilution assay; format: functional
Pseudomonas aeruginosa [20] = assay: Antibacterial activity against Pseudomonas aeruginosa PAO1 clinical isolate after 16 to 20 hrs by microdilution assay; format: functional
Pseudomonas aeruginosa [21] = assay: Antibacterial activity against Pseudomonas aeruginosa Clone C clinical isolate after 16 to 20 hrs by microdilution assay; format: functional
Pseudomonas aeruginosa [22] = assay: Antibacterial activity against Pseudomonas aeruginosa LES431 clinical isolate after 16 to 20 hrs by microdilution assay; format: functional
Pseudomonas aeruginosa [23] = assay: Antibacterial activity against Pseudomonas aeruginosa VW1538 clinical isolate after 16 to 20 hrs by microdilution assay; format: functional
Pseudomonas aeruginosa [24] = assay: Antibacterial activity against Pseudomonas aeruginosa KD491 clinical isolate assessed as prolongation time of lag phase in bacterial growth curve at 0.25 ug/ml measured every 15 mins by microtiter plate reader method; format: functional, organism-based
Pseudomonas aeruginosa [25] = assay: Antibacterial activity against Pseudomonas aeruginosa LESB58 clinical isolate assessed as prolongation of lag phase in bacterial growth curve at 2 ug/ml measured every 15 mins by microtiter plate reader method; format: functional, organism-based
Pseudomonas aeruginosa [26] = assay: Antibacterial activity against Pseudomonas aeruginosa VW1471 clinical isolate after 16 to 20 hrs by microdilution assay; format: functional

## COLISTIN
Pseudomonas aeruginosa [1]
  MIC: 32 µg/mL
Pseudomonas aeruginosa [2]
  Activity: inactive
Pseudomonas aeruginosa [3]
  MIC: 4 µg/mL
Pseudomonas aeruginosa [4]
  Activity: inactive
Pseudomonas aeruginosa [5]
  MIC: 2 µg/mL
Pseudomonas aeruginosa [6]
  inhibition: < 20%
Pseudomonas aeruginosa [7]
  MIC: 4 µg/mL
Pseudomonas aeruginosa [8]
  MIC: 8 µg/mL
Pseudomonas aeruginosa [9]
  MIC: 2 µg/mL
Pseudomonas aeruginosa [10]
  MIC: > 128 µg/mL
Pseudomonas aeruginosa [11]
  inhibition: < 20%
Pseudomonas aeruginosa [12]
  MIC: 2 µg/mL
Pseudomonas aeruginosa [13]
  MIC: 4 µg/mL
Pseudomonas aeruginosa [14]
  MIC: 4 µg/mL
Pseudomonas aeruginosa [15]
  MIC: 2 µg/mL
Pseudomonas aeruginosa [16]
  MIC: 4 µg/mL
Pseudomonas aeruginosa [17]
  MIC: 4 µg/mL
Pseudomonas aeruginosa [18]
  MIC: 4 µg/mL
Pseudomonas aeruginosa [19]
  MIC: 8 µg/mL
Pseudomonas aeruginosa [20]
  MIC: 4 µg/mL
Pseudomonas aeruginosa [21]
  MIC: 4 µg/mL
Pseudomonas aeruginosa [22]
  MIC: 2 µg/mL
Pseudomonas aeruginosa [23]
  MIC: 2 µg/mL
Pseudomonas aeruginosa [24]
  TIME: 4 h
Pseudomonas aeruginosa [25]
  Activity: Active
Pseudomonas aeruginosa [26]
  MIC: 4 µg/mL

From ChEMBL document CHEMBL3779859, “Synergistic activity of a short lipidated antimicrobial peptide (lipoAMP) and colistin or tobramycin against Pseudomonas aeruginosa from cystic fibrosis patients” (Medchemcomm, 2016)
